Legend:
[1] = system: MEFs; assay: RANTES protein in MEF supernatants; assay type: cell-based, mouse; settings: MAVS+/+ and MAVS−/− MEFs, 24 h
Experimental: IFN-β protein in cell culture supernatants was measured using a custom ELISA originally described in Weinstein, S. L. et al. (2000) “Phosphatidylinositol 3-Kinase And mTOR Mediate Lipopolysaccharide-Stimulated Nitric Oxide Production In Macrophages Via Interferon-Beta,” J. Leukocyte Biol. 67:405-414, with few modifications. […] Plates were blocked with 10% FCS in 1×PBS for 2 h at room temperature. Samples and a murine IFN-β standard (NIH, Bethesda, Md.) were added to wells and incubated overnight at 4° C. […] Wells were washed 3× followed by incubation with a 1:2000 dilution of goat anti-rabbit HRP (Cell Signaling Technologies, Beverly, Mass.) in 10% FCS-PBS for 1 h at room temperature. Plates were washed 3× and developed with TMB substrate (KPL, Gaithersburg, Md.). The reaction was stopped by addition of 1N H2SO4, and plates were read at 450 nm. RANTES and TNF-α were quantified using Luminex bead-based colorimetric assays. […] For stimulation of cells, poly(I:C) was mixed with Fugene 6 transfection reagent (Roche) at a ratio of 1:1 (volume:weight) in OptiMEM medium and incubated for 15 min prior to stimulation. Culture supernatants of cells (2×10^4) seeded on 96-well plates were collected after 24 h stimulation and analyzed for RANTES levels with ELISA. ELISA was performed according to the manufacturer's instructions (R&D Systems).

[2] = system: peritoneal macrophages; assay: Quantitative real-time PCR of cytokine mRNA in murine peritoneal macrophages
[3] = system: IRF-3; assay: Native-PAGE and Western blotting for IRF-3 dimers; assay type: cell-based, mouse; settings: macrophages pretreated with SA
Experimental: Rabbit anti-mouse IκBα phospho-specific Ab (pAb) was purchased from Santa Cruz Biotechnology, Inc. (Santa Cruz, Calif.). Rabbit anti-mouse MAPK pAb and rabbit anti-human phospho-IRF-3 pAb antibodies were purchased from Cell Signaling (Danvers, Mass.). Rabbit anti-mouse IRF-3 pAb was purchased from Zymed (South San Francisco, Calif.). Native-PAGE for the detection of IRF-3 dimers was carried out as described in Iwamura, T. et al. (2001) “Induction Of IRF-3/-7 Kinase And NF-kappaB in Response To Double-Stranded RNA And Virus Infection: Common And Unique Pathways,” Genes and Cells 6:375-388. Briefly, thioglycollate-elicited peritoneal macrophages were lysed following stimulation with either LPS or DMXAA as indicated. […] Membranes were probed with a 1:250 dilution of rabbit anti-mouse IRF-3 for 1 h at room temperature. Goat anti-rabbit IgG-HRP (Cell Signaling Technologies, Danvers, Mass.) at a 1:2000 dilution was used as the secondary Ab. Blots were developed with ECL Plus (Amersham Biosciences, Piscataway, N.J.).

[4] = peritoneal macrophages pretreated with SA

Compound | RANTES response in MAVS-deficient MEFs [1] | TNF-α mRNA in the absence of TLR4 ([2]; TLR4−/− peritoneal macrophages, 2 h) | IRF-3 dimer formation and phosphorylation of serine 396 in response to DMXAA [3] | effect on DMXAA-induced IFN-β expression [2, 4] | effect on LPS-induced IFN-β mRNA expression [2, 4]
poly I:C [reference compound] | completely abrogates | induces TNF-α to wild-type levels |  |  | 
O=C(O)c1ccccc1O [SA, salicylic acid, reference compound] |  |  | inhibits | dramatically reduces | essentially unaffected

Reference: patent publication US8957108B2, “Use of 5,6-dimethylxanthenone-4-acetic acid as an antiviral agent” (University of Maryland, Baltimore, priority 2006, dated 2015)
